Experimental data published in US20240115547A1, “PSYCHOTROPIC AGENTS AND USES THEREOF” (LB PHARMACEUTICALS INC., priority 2021, published 2024).
Where two headings read alike, the source gives them in different places.

Assay: PK analysis of LB-102 in healthy human subjects, single and multiple ascending doses (Example 2)
Assay type: in vivo
Conditions: for half-life / Cmax / Tmax: both sexes, plasma, oral
Protocol: Healthy females and males between 18 and 55 years of age with BMI≥18 and ≤30 kg/m2 were enrolled in the study. Exclusion criteria included: history or presence of psychiatric disorder, drug or alcohol abuse, history of QT prolongation or dysrhythmia, fasting blood glucose level of 126 mg/dL, or a known allergy to the drug or its metabolites. The study was planned as a two part study. Part A was comprised of 5 single ascending dose groups, each of 8 subjects. Part B was comprised of 3 multiple ascending doses, two doses a day for 7 days ([…] doses in total) each of 8 subjects. All subjects were randomized 3:1 drug:placebo. The primary endpoint of the study was safety, with pharmacokinetics as a secondary objective.
Plasma concentrations of LB-102 were obtained as a function of time for single oral administration of LB-102 to human subjects at 10 mg (larger cross), 50 mg (triangle), 100 mg (square), 150 mg (smaller cross), and 200 mg (diamond), respectively, are further provided in FIG. 3.

AUC0-inf D1 (50 mg every 12 hours, D1, mean (SD)): 1012.6 (100.4) ngh/mL
AUC0-inf D7 (50 mg every 12 hours, D7, mean (SD)): 2489.1 (312.4) ngh/mL
CL/F (50 mg every 12 hours, mean (SD)): 33.8 (3.1) L/h
AUC relative to AUC of 50 mg amisulpride (50 mg oral LB-102 vs published 50 mg amisulpride): about 2.5 times
AUC0-inf D1 (75 mg every 12 hours, D1, mean (SD)): 1777.9 (309.0) ngh/mL
CL/F (75 mg every 12 hours, mean (SD)): 34.9 (8.8) L/h
AUC0-inf D1 (100 mg every 12 hours, D1, mean (SD)): 2152.9 (439.9) ngh/mL
accumulation across dose levels (MAD portion of the study): slight to moderate accumulation
half-life (human, 10 mg, single administration 10 mg, mean (SD), read-out: T1/2 (converted)): 13.7 h
Cmax (human, 10 mg, single administration 10 mg, mean, read-out: Cmax): 0.0241 µg/mL
Tmax (human, 10 mg, single administration 10 mg, read-out: Tmax): 3 h
Cmax (human, 50 mg, 50 mg every 12 hours, D1, mean (SD), read-out: Cmax D1): 0.126 µg/mL
half-life (human, 50 mg, 50 mg every 12 hours, D1, mean (SD), read-out: T1/2 D1 (converted)): 4.2 h
Tmax (human, 50 mg, 50 mg every 12 hours, D1, read-out: Tmax D1): 2.5 h
Cmax (human, 50 mg, 50 mg every 12 hours, D7, mean (SD), read-out: Cmax D7): 0.224 µg/mL
half-life (human, 50 mg, 50 mg every 12 hours, D7, mean (SD), read-out: T1/2 D7 (converted)): 14.3 h
Tmax (human, 50 mg, 50 mg every 12 hours, D7, read-out: Tmax D7): 2.5 h
half-life (human, 50 mg, single administration 50 mg, mean (SD), read-out: T1/2 (converted)): 11.9 h
Cmax (human, 50 mg, single administration 50 mg, mean, read-out: Cmax): 0.176 µg/mL
Tmax (human, 50 mg, single administration 50 mg, read-out: Tmax): 3 h
Cmax (human, 75 mg, 75 mg every 12 hours, D1, mean (SD), read-out: Cmax D1): 0.267 µg/mL
half-life (human, 75 mg, 75 mg every 12 hours, D1, mean (SD), read-out: T1/2 D1 (converted)): 4 h
Tmax (human, 75 mg, 75 mg every 12 hours, D1, read-out: Tmax D1): 3 h
Cmax (human, 75 mg, 75 mg every 12 hours, D7, mean (SD), read-out: Cmax D7): 0.309 µg/mL
Tmax (human, 75 mg, 75 mg every 12 hours, D7, read-out: Tmax D7): 2 h
Cmax (human, 100 mg, 100 mg every 12 hours, D1, mean (SD), read-out: Cmax D1): 0.325 µg/mL
half-life (human, 100 mg, 100 mg every 12 hours, D1, mean (SD), read-out: T1/2 D1 (converted)): 4.12 h
Tmax (human, 100 mg, 100 mg every 12 hours, D1, read-out: Tmax D1): 2.5 h
half-life (human, 100 mg, single administration 100 mg, mean (SD), read-out: T1/2 (converted)): 14.1 h
Cmax (human, 100 mg, single administration 100 mg, mean, read-out: Cmax): 0.348 µg/mL
Tmax (human, 100 mg, single administration 100 mg, read-out: Tmax): 3 h
half-life (human, 150 mg, single administration 150 mg, mean (SD), read-out: T1/2 (converted)): 12 h
Cmax (human, 150 mg, single administration 150 mg, mean, read-out: Cmax): 0.597 µg/mL
Tmax (human, 150 mg, single administration 150 mg, read-out: Tmax): 3 h
half-life (human, 200 mg, single administration 200 mg, mean (SD), read-out: T1/2 (converted)): 13 h
Cmax (human, 200 mg, single administration 200 mg, mean, read-out: Cmax): 0.976 µg/mL
Tmax (human, 200 mg, single administration 200 mg, read-out: Tmax): 3 h
metabolism of LB-102 to amisulpride (human (FIG. 2)): < 3%
increase of exposure with dose (oral dosing, human): slightly greater than dose proportional
absorption (orally dosed, human): rapidly absorbed
AUC0-inf (single administration 10 mg, mean): 252.6 ngh/mL
CL/F (single administration 10 mg, mean (SD)): 42.4 (12.6) L/h
AUC0-inf (single administration 50 mg, mean): 1595.9 ngh/mL
CL/F (single administration 50 mg, mean (SD)): 31.7 (3.8) L/h
AUC0-inf (single administration 100 mg, mean): 2809.8 ngh/mL
CL/F (single administration 100 mg, mean (SD)): 36.6 (6.9) L/h
AUC0-inf (single administration 150 mg, mean): 4636.6 ngh/mL
CL/F (single administration 150 mg, mean (SD)): 33.1 (5.3) L/h
AUC0-inf (single administration 200 mg, mean): 7002.1 ngh/mL
CL/F (single administration 200 mg, mean (SD)): 28.9 (3.4) L/h
AUC (single oral administration of 50 mg to human subjects (FIG. 4B)): 1,595 ngh/mL
SMILES: CCN1CCCC1CNC(=O)c1cc(S(=O)(=O)CC)c(NC)cc1OC (stereo not shown) [LB-102]
trough concentrations (MAD portion of the study): plateaued prior to the morning dose on Day 4
